From article PMC10455339, “Combining the Peptide RWQWRWQWR and an Ethanolic Extract of Bidens pilosa Enhances the Activity against Sensitive and Resistant Candida albicans and C. auris Strains” (Journal of Fungi, 2023)
Values joined by “and” are separate entries in the source; they are usually repeats but may differ in a detail not shown here. Identical values can stand only once. Like-named read-outs stand apart in the source and are kept apart here. Ends that are not written are not given here.

Columns and labels:
[1] = test system: C. albicans; conditions: cited from earlier work
Text: Antifungal activity of other phenolic acids, such as chlorogenic acid, has been reported against Candida spp. resistant to FLC, generating a death process similar to apoptosis.

[2] = test system: C. auris 435-PUJ-HUSI; experiment: Antifungal activity (MIC/MFC), broth microdilution; type: cell-based, Candida auris; conditions: FLC-sensitive isolate, n = 3; for MIC: CLSI M27-A4 modified, RPMI 1640, 37 °C, 48 h, MIC = 50% growth inhibition; for MFC: subculture on SDA 24 h 37 °C, MFC = eliminates 100% of growth
Method: (§1) For the determination of the MICs, the guidelines of the Clinical Laboratory Standards Institute (CLSI BMD-M27-A4) were used with some modifications. Serial dilutions were made, for peptides from 6.25 to 200 µg/mL and for extracts from 31.2 to 2000 µg/mL, with RPMI 1640 medium in a 96-well microdilution plate (100 µL), and then 100 µL of the adjusted inoculum (0.5–2.5 × 10^3 cells/mL) was added and incubated at 37 °C, and visual and spectrophotometric reading (595 nm) was performed at 48 h. Controls: growth control in RPMI or DMSO, control with a known antifungal: FLC, C. albicans SC5314 (1 µg/mL), C. albicans 256 (64 µg/mL), C. auris 435 (8 µg/mL), and C. auris 537 (128 µg/mL), sterility controls correspond to RPMI medium and SS. The MIC was defined as the minimum concentration of peptide or extract that inhibited 50% of growth compared to the control. To determine the minimal fungicidal concentration (MFC), from the concentrations where no growth was observed, including the controls, a subculture was made on SDA and incubated for 24 h at 37 °C. The MFC was defined as the minimum concentration of peptide or extract that eliminated 100% of the growth compared to the control (n = 3).

[3] = test system: C. auris 537-PUJ-HUSI; experiment: Antifungal activity (MIC/MFC), broth microdilution; type: cell-based, Candida auris; conditions: FLC- and AmB-resistant isolate, n = 3
Method: as §1

[4] = test system: C. albicans 256-PUJ-HUSI; experiment: Antifungal activity (MIC/MFC), broth microdilution; type: cell-based, Candida albicans; conditions: FLC-resistant isolate, n = 3
Method: as §1

[5] = test system: C. albicans SC5314; experiment: microbe, parasite or virus in culture; type: cell-based, Candida albicans; conditions: n = 3; for MIC: CLSI M27-A4 modified, RPMI 1640, 37 °C, 48 h, MIC = 50% growth inhibition; for MFC: subculture on SDA 24 h 37 °C, MFC = eliminates 100% of growth
Method: as §1

[6] = reported against other C. albicans strains
[7] = reported against C. albicans strains
[8] = CLSI M27-A4 modified, RPMI 1640, 37 °C, 48 h, MIC = 50% growth inhibition
[9] = subculture on SDA 24 h 37 °C, MFC = eliminates 100% of growth

Substance: FKCRRWQWRMKKLGA [bLF (or LFB) 17–30, short peptide derived from LfcinB, …]
- MIC [1, 6]: 5 to 10 µM

Substance: GAPSITCVRRAF [Peptide 3, short peptide derived from LfcinB, …]
- MIC [1, 6]: 635 µM

Substance: Lfcin B-18-42: short peptide derived from LfcinB (FKCRRWQWRMKKLGAPSITCVRRAF; ends and bridges not checked; cysteine pairing not given here; UniProt P24627 36-60, looked up, fragment)
- MIC [1, 7]: 100 µg/mL

Substance: LfcinB: Bovine lactoferricin, AMP derived from bovine lactoferrin (FKCRRWQWRMKKLGAPSITCVRRAF; ends and bridges not checked; cysteine pairing not given here; UniProt P24627 36-60, looked up)
- MIC [1, 7]: 0.8 to 400 µg/mL

Substance: RRWQWRMKK [Lfcin B-9, short peptide derived from LfcinB, …]
- MIC [1, 7]: 25,000–32,000 μg/mL

Substance: RWQWHomoFQWR [[^5HomoF]-R-1-R, RWQWHomoFQWR, position 5 replaced by Homophenylalanine]
- MIC [2]: > 200 μg/mL and > 134 μM
- MFC [2]: > 200 μg/mL and > 134 μM
- MIC [3, 8]: > 200 μg/mL and > 134 μM
- MFC [3, 9]: > 200 μg/mL and > 134 μM
- MIC [4, 8]: 200 μg/mL and 134 μM
- MFC [4, 9]: > 200 μg/mL and > 134 μM
- MIC [5]: 200 μg/mL and 134 μM
- MFC [5]: > 200 μg/mL and > 134 μM

Substance: RWQWNalQWR [[^5Nal]-R-1-R, RWQWNalQWR, position 5 replaced by Naphthylalanine]
- MIC [2]: > 200 μg/mL and > 131 μM
- MFC [2]: > 200 μg/mL and > 131 μM
- MIC [5]: > 200 μg/mL and > 131 μM
- MFC [5]: > 200 μg/mL and > 131 μM

Substance: RWQWRM [Peptide 5, short peptide derived from LfcinB, RWQWRM]
- MIC [1, 6]: 500 µM
